“Also recorded” adds a separate entry of the source.

The nature of data set [1]: Food-derived glutathione in washed intestine and liver after oral gavage of 13C-labeled compound (LC-MS/MS). Conditions: rat. The method, then: Rats were acclimatized for a week, divided into four groups, and were given 1 mL of glutathione-1-^13C (50 mg/kg body weight) or NAC-1-^13C (50 mg/kg body weight) solutions using an oral gavage.
Portions of the thoroughly washed intestines and livers were homogenized in the same weight of PBS using a BioMasher (Nippi, Tokyo, Japan). The obtained homogenates were then mixed with the same volumes of 10% (v/v) TCA-4% (v/v) 2-mercaptoethanol and allowed to stand for 30 min at 25°C. The supernatant was collected and used to determine the total amounts of glutathione and related peptides. Another set of intestines and livers were homogenized in the same volume of PBS containing 20 mM NEM and then allowed to stand for 10 min at 25 °C. The homogenate were further diluted with another three fold volumes of PBS without NEM, and mixed with the same volume of 10% (v/v) TCA. […] The precipitate was washed with the same weight of 10% TCA three times, and the protein-bound form of glutathione was extracted with the same weight of 10% TCA-4% 2-mercaptoethanol as described above.
The 5% TCA–2% 2-mercaptoethanol extracts (50 μL) were dried under vacuum to remove excess amounts of 2-mercaptoethanol; thereafter, 20 μL of an alkaline solution was added to neutralize the extracts and they were again dried under vacuum.
With NEM, glutathione disulfide was conjugated with two molecules of AccQs, and the resultant AccQ derivative of glutathione disulfide was subjected to the LC-MS/MS as described above.

The conditions of data set [2]: rat.
Description: (§1) All animals were treated and cared in accordance with the National Institutes of Health’s guidelines for the use of experimental animals. All experimental procedures were approved by the Animal Care Committee of Kyoto Prefectural University (No. KPU260400-260421). Seven-week-old Wister rats (body weight 200–220 g) were housed in a 12-h light-dark cycle and allowed free access to standard rat chow and water. […] The plasma was prepared by centrifugation at 800×g for 10 min at 4 °C. The liver and small intestines were taken from the rats. The intestines were flushed with about 40 mL of cold PBS to remove its contents. The blood in the liver was purged by infusing cold PBS into the portal vein. Samples were stored at −80 °C until use.
(§2) The plasma (100 μL) was mixed with three fold volumes of ethanol. The supernatant and precipitate obtained were harvested by centrifugation at 14,200×g at 4 °C for 10 min. The supernatant was referred to as the low-molecular-weight fraction of the plasma. Aliquots of the low-molecular-weight fraction (300 μL each) were dried under vacuum, and processed using two methods. Some dried aliquots were treated with 50 μL of 5% TCA-2% 2-mercaptoethanol solution for 30 min and used in determining the total glutathione and related peptides. Free and bound-form glutathione were bound to 2-mercaptoethnol.[6] Other dried aliquots of the fraction (300 μL) were treated with 50 μL of 20 mM NEM in PBS for 10 min. Only free glutathione bound to NEM, as NEM has no reducing activity. The reaction was terminated by adding 50 μL of 5% TCA solution. The NEM-treated fraction was used in determination of the reduced-form of glutathione and glutathione disulfide.
(§3) The ethanol precipitate of the plasma was further washed with 200 μL of 75% (v/v) ethanol twice. The residue was collected by centrifugation at 14,200×g at 4 °C. Protein-bound glutathione and related peptides were liberated from the residue by extracting with 100 μL of 5% TCA-2% 2-mercaptoethanol with occasional agitation for 30 min. The supernatant obtained after centrifugation was used to determine the protein-bound form of glutathione and related peptides.[6]
(§4) The 5% TCA–2% 2-mercaptoethanol extracts (50 μL) were dried under vacuum to remove excess amounts of 2-mercaptoethanol; thereafter, 20 μL of an alkaline solution was added to neutralize the extracts and they were again dried under vacuum. The residues were mixed with 20 μL of 20 mM HCl, 60 μL of the sodium borate buffer provided with the AccQ Tag Ultra Derivatization Kit, and 20 μL of 0.3% (w/v) AccQ acetonitrile solution and heated at 50 °C for 10 min to obtain their AccQ derivatives. Then, the reaction mixtures were diluted with adequate amounts of 5 mM sodium phosphate buffer (pH 7.4) containing 10% (v/v) acetonitrile and filtered using a 0.45-μm filter (Cosmonice filter W, Nacalai Tesque). The filtrates were subjected to LC-MS/MS using a 3200 QTRAP system (AB SCIEX, Framingham, MA) as previously described.[6]
(§5) Without 2-mercaptoethanol, the sulfhydryl group of glutathione was conjugated with NEM in PBS. The NEM-glutathione derivative was directly subjected to LC-MS/MS to determine the reduced-form of glutathione. With NEM, glutathione disulfide was conjugated with two molecules of AccQs, and the resultant AccQ derivative of glutathione disulfide was subjected to the LC-MS/MS as described above. Reduced-form glutathione (2 nmol) was added to the ethanol-soluble fraction of plasma from portal blood.
A further data set is described as follows: in vivo. Conditions: Wister, rat, po, 50 mg/kg, 60 min after ingestion.
For data set [3] the following is noted: humans, dietary supplementation; cited from earlier work.
The test system of data set [4] is peroxisome proliferator-activated receptor gamma coactivator 1-alpha (PGC-1α). The settings on record: cited from earlier work.
For data set [5] the following is noted: patients with non-alcoholic fatty liver disease, oral administration; cited from earlier work.
For data set [6] the following is noted: oral administration, vs placebo controls; cited from earlier work.
The conditions of data set [7]: oral administration, vs placebo controls; cited from earlier work. The source holds these as a separate data set.
The conditions of data set [8]: animals, oral administration; cited from earlier work.
For data set [9] the following is noted: mice, 12 weeks supplementation, 50 mg/kg body weight, preliminary experiment.

Description for in vivo: as §1, §2, §3, §4, §5

As for `CC(=O)N[C@@H](CS)[13C](=O)O` [NAC, N-acetylcysteine-1-^13C], the “Food-derived glutathione in intestines and liver after ingestion of NAC” value in data set [1] (oral 50 mg/kg) is recorded as “present”. The “NAC-derived glutathione (and fragment peptides) in blood plasma” value in data set [2] (oral 50 mg/kg, within 120 min, 50 mg/kg) is on record as “not detected; also recorded: no significant amounts”.

With `N[C@@H](CCC(=O)N[C@@H](CS)C(=O)NCC(=O)O)C(=O)O` [glutathione, γ-L-glutamyl-L-cysteinyl-glycine], the concentration at 60 min in “in vivo” (Food-derived glutathione level in low-molecular-weight fraction of blood from hepatic portal vein) was approximately 400 nM; in “in vivo” (Food-derived glutathione level in low-molecular-weight fraction of blood from inferior vena cava), less than 100 nM. Moreover, the “Protein-bound glutathione in the blood plasma” value in data set [3] is listed as “increase”. Further, the “PGC-1α / mitochondrial biogenesis” value in [4] (previous animal experiment) is “enhances mitochondrial biogenesis by increasing”. For the same molecule, in [1], the “Food-derived Cys-Gly, γ-Glu-Cys and glutathione disulfide in the liver without blood” value is on record as “negligible amounts”. Also, the “Food-derived glutathione as share of total glutathione in the liver” value in data set [1] (120 min after administration at 50 mg/kg) is on record as “approximately 5%”. Besides, the “Plasma alanine aminotransferase and free fatty acid levels” value in data set [5] is on record as “significantly reduce”. The “Melanin indices on the skin” value in [6] is on record as “reduce melanin indices on the skin”. In addition, the Exercise-induced fatigue entry in [7] is “reduce”. Further, the Liver glutathione level result in data set [8] was “increase the liver glutathione level”. Moreover, in data set [9], the “Liver glutathione levels compared to controls” value is reported as “did not significantly increase”. Also, the “Food-derived glutathione in protein-bound fraction, plasma from portal vein vs inferior vena cava” value in data set [2] (after oral glutathione) is on record as “insignificantly different”. For the same molecule, the “Reduced-form glutathione and glutathione disulfide in low-molecular-weight fraction of plasma from portal vein” value in [2] (after oral glutathione, LC-MS/MS multi-reaction monitoring) is “no reduced-form glutathione and glutathione disulfide were detected”.

vitamin E: in [4], the “Exercise-induced increase of PGC-1α” value is listed as “suppress”.

Take `N[C@@H](CCC(=O)N[C@@H](CS)[13C](=O)NCC(=O)O)C(=O)O` [glutathione-1-^13C, Glutathione-1-^13C]: in [1] (in vivo, po), the “Food-derived Cys-Gly and γ-Glu-Cys in intestines and liver” value was “negligible amounts”. Besides, in data set [1] (in vivo, po, 50 mg/kg), the “Food-derived glutathione content in intestine” value is reported as “approximately 60 μmol/kg” and the “Food-derived glutathione content in liver” value is approximately 300 µmol/kg. In addition, in [2] (in vivo, po), the “Food-derived Cys-Gly and γ-Glu-Cys in plasma” value was “significant amounts”. In data set [2] (in vivo, po, 50 mg/kg), the “Status (form) of food-derived glutathione in blood plasma” value was “conjugated with proteins and low-molecular-weight thiol compounds”.

Regarding `O=C1O[C@H]([C@@H](O)CO)C(O)=C1O` [vitamin C], the “Exercise-induced increase of PGC-1α” value in [4] was “suppress”.

The values are drawn from paper PMC6550177, “Statuses of food-derived glutathione in intestine, blood, and liver of rat” (NPJ Science of Food, 2018).
